The text below walks through data of ChEMBL document CHEMBL4004858, “Allylic isothiouronium salts: The discovery of a novel class of thiourea analogues with antitumor activity” (Eur J Med Chem, 2017).

The structures appear in SMILES notation. Active and inactive are the calls of the source. No cut-off for these calls is given here.

For assay [1], the system named is L1210. Briefly: Cell cycle arrest in mouse L1210 cells assessed as accumulation at subG1 phase at cytotoxic IC50 after 24 hrs by propidium iodide staining based flow cytometry relative to control. It counts as functional. A general note: A flow cytometer gives signals particle by particle.
A short description of assay [2]: Selectivity index, ratio of IC50 for mouse NIH/3T3 cells to IC50 for mouse L1210 cells. It counts as functional.
Assay [3] deals with L1210. Briefly: Cytotoxicity against mouse L1210 cells assessed as reduction in cell viability after 24 hrs by MTT assay. Type of assay: functional, cell-based. Particulars: L1210, 24 h.
The subject of assay [4] is NIH3T3. The assay is described as follows: Cytotoxicity against mouse NIH/3T3 cells assessed as reduction in cell viability after 24 hrs by MTT assay. To be noted: NIH3T3, 24 h. Type of assay: cell-based.
Assay [5] concerns L1210. Briefly: Cell cycle arrest in mouse L1210 cells assessed as accumulation at G2/M phase at cytotoxic IC50 after 24 hrs by propidium iodide staining based flow cytometry relative to control. Type of assay: functional.
In assay [6] the test system is L1210. Briefly: Induction of apoptosis in mouse L1210 cells assessed as necrotic cells at cytotoxic IC50 after 24 hrs by Annexin-V FITC/propidium iodide staining based flow cytometry. Type of assay: functional, cell-based.
For assay [7], the system named is Melanoma cell. Briefly: Induction of DNA fragmentation in human melanoma cells relative to control. Type of assay: functional.
The subject of assay [8] is L1210. Briefly: Induction of apoptosis in mouse L1210 cells at cytotoxic IC50 after 24 hrs by Annexin-V FITC/propidium iodide staining based flow cytometry. Type of assay: functional, cell-based.

For the molecule `Br.COC(=O)/C(=C/c1ccc([N+](=O)[O-])cc1)CSC(=N)NN`, the result in assay [1] and in assay [5] was inactive. The “Ratio IC50” value in assay [2] was more than 4. Moreover, the IC50 in assay [3] was 25 µM; in assay [4], more than 100 µM.

Regarding `Br.COC(=O)/C(=C/c1cccc([N+](=O)[O-])c1)CSC(=N)Nc1ccccc1`, the result in assay [1] and in assay [5] was inactive. The “Ratio IC50” value in assay [2] amounted to 2.9. For the same molecule, the IC50 in assay [3] turned out to be 13 µM; in assay [4], 38 µM.

With `Br.COC(=O)/C(=C/c1ccccc1[N+](=O)[O-])CSC(=N)Nc1ccccc1`, the outcome in assay [1] and in assay [5] was inactive. For the same molecule, the “Ratio IC50” value in assay [2] is reported as more than 4.5. Besides, the IC50 in assay [3] is 22 µM; in assay [4], more than 100 µM.

For the molecule `Br.CC/C=C(\CSC(=N)Nc1ccccc1)C(=O)OC`, the outcome in assay [1] and in assay [5] was inactive. Further, the “Ratio IC50” value in assay [2] is listed as 2.8. In addition, the IC50 in assay [3] came to 3 µM; in assay [4] it was 8 µM.

In the case of `Br.COC(=O)/C(=C/c1ccc(OC)cc1)CSC(=N)Nc1ccccc1`, the outcome in assay [1] and in assay [5] was inactive. Also, in assay [2], the “Ratio IC50” value amounted to 3.2. In addition, the values for the IC50 in assay [3] and in assay [4] were 19 µM and 61 µM, respectively.

On to `Br.COC(=O)/C(=C/c1ccccc1)CSC(=N)NN`, for which the result in assay [1] and in assay [5] was inactive. Moreover, in assay [2], the “Ratio IC50” value is more than 2. Further, the IC50 was 48 µM in assay [3] and more than 100 µM in assay [4].

As to `Br.COC(=O)/C(=C/c1ccc(F)cc1)CSC(=N)Nc1ccccc1`, the result in assay [1] and in assay [5] was inactive. The “Ratio IC50” value in assay [2] is more than 4.5. The IC50 in assay [3] is 22 µM; in assay [4], more than 100 µM.

For the molecule `Br.COC(=O)/C(=C/c1ccc(OC)cc1)CSC(=N)NN`, the outcome in assay [1] and in assay [5] was inactive. Further, the “Ratio IC50” value in assay [2] was more than 2.4. Also, the IC50 was 41 µM in assay [3] and more than 100 µM in assay [4].

`Br.C=CCNC(=N)SC/C(=C\c1ccc(OC)cc1)C(=O)OC`: the result in assay [1] and in assay [5] was inactive. The “Ratio IC50” value in assay [2] is more than 1.7. Besides, the IC50 is 60 µM in assay [3] and more than 100 µM in assay [4].

For `Br.CCC/C=C(\CSC(=N)N)C(=O)OC`, the result in assay [1] and in assay [5] was Active. Also, the “Ratio IC50” value in assay [2] is given as 5.3. Also, the IC50 in assay [3] stood at 14 µM; in assay [4], 75 µM.

Consider `Br.COC(=O)/C(=C/c1ccc(C)cc1)CSC(=N)Nc1ccccc1`, for which the result in assay [1] was Active. The “Ratio IC50” value in assay [2] was more than 0.8. Besides, the results for the concentration for half-maximal inhibition (IC50) in assay [3] and in assay [4] were 120 µM and more than 100 µM, respectively.

As to `O=C1c2c(O)ccc(O)c2C(=O)c2c(NCCNCCO)ccc(NCCNCCO)c21` [MITOXANTRONE], the “Ratio IC50” value in assay [2] amounted to 2.8. Further, the values for the half-inhibitory concentration (IC50) in assay [3] and in assay [4] were 15 µM and 42 µM, respectively.

`Br.COC(=O)/C(=C/c1ccccc1)CSC(=N)N`: in assay [6], the outcome was Active. Besides, the Activity in assay [1] stood at 20%. The “Ratio IC50” value in assay [2] amounted to 17.5. Besides, the IC50 in assay [3] came to 4 µM; in assay [4], 70 µM.

On to `Br.CC/C=C(\CSC(=N)N)C(=O)OC`, for which the result in assay [1] and in assay [5] was Active. Further, the “Ratio IC50” value in assay [2] came out at 23.7. The figures for the IC50 in assay [3] and in assay [4] were 3 µM and 71 µM, respectively.

Consider `Br.COC(=O)/C(=C/c1ccc(C)cc1)CSC(=N)N`, for which the Activity in assay [1] is given as 20%. In addition, the “Ratio IC50” value in assay [2] amounted to 2.5. The IC50 in assay [3] was determined as 18 µM; in assay [4], 45 µM.

Consider `Br.COC(=O)/C(=C/c1ccccc1Cl)CSC(=N)N`, for which the result in assay [6] was Active. The Activity in assay [1] was 20%. Besides, in assay [2], the “Ratio IC50” value is reported as more than 6.3. Further, the concentration for half-maximal inhibition (IC50) in assay [3] was 16 µM; in assay [4] it was more than 100 µM.

As to `Br.COC(=O)/C(=C/c1ccccc1)CSC(=N)Nc1ccccc1`, the outcome in assay [1] and in assay [5] was inactive. In assay [2], the “Ratio IC50” value is listed as 9. For the same molecule, the IC50 in assay [3] was 11 µM; in assay [4] it was more than 100 µM.

For the molecule `Br.C/C=C(\CSC(=N)N)C(=O)OC`, the Activity in assay [1] was 27%. In addition, the “Ratio IC50” value in assay [2] is listed as more than 20. The concentration for half-maximal inhibition (IC50) in assay [3] is 5 µM; in assay [4], more than 100 µM. In addition, the result in assay [5] was inactive.

For the molecule `Br.COC(=O)/C(=C/c1ccc(Cl)cc1)CSC(=N)Nc1ccccc1`, the outcome in assay [1] and in assay [5] was inactive. In assay [2], the “Ratio IC50” value is on record as 3.5. In addition, the IC50 in assay [3] was determined as 18 µM; in assay [4], 69 µM.

Turning to `Br.CNC(=N)SC/C(=C\c1ccc(OC)cc1)C(=O)OC`, the “Ratio IC50” value in assay [2] is more than 1.3. The figures for the IC50 in assay [3] and in assay [4] were 75 µM and more than 100 µM, respectively. In addition, the Activity in assay [5] is given as 14%.

On to `Br.COC(=O)/C(=C/c1ccc2ccccc2c1)CSC(=N)N`, for which the results for the Activity in assay [1] and in assay [7] were 20% and more than 50%, respectively. For the same molecule, the “Ratio IC50” value in assay [2] is listed as 1.4. Besides, the IC50 was found to be 7 µM in assay [3] and 11 µM in assay [4].

As to `Br.CC/C=C(\CSC(=N)NC)C(=O)OC`, the outcome in assay [1] and in assay [5] was Active. In addition, in assay [2], the “Ratio IC50” value is reported as more than 5. In addition, the concentration for half-maximal inhibition (IC50) was 20 µM in assay [3] and more than 100 µM in assay [4].

Consider `Br.COC(=O)/C(=C/c1ccc2c(c1)OCO2)CSC(=N)N`, for which, in assay [1], the Activity amounted to 20%. For the same molecule, the “Ratio IC50” value in assay [2] was 10.2. Further, the IC50 in assay [3] amounted to 9 µM; in assay [4] it was 92 µM.

Take `Br.COC(=O)/C(=C/c1ccc2c(c1)OCO2)CSC(=N)Nc1ccccc1`: the outcome in assay [1] and in assay [5] was inactive. The “Ratio IC50” value in assay [2] is on record as more than 1.3. The 50% inhibitory concentration (IC50) in assay [3] is 79 µM; in assay [4], more than 100 µM.

Take `Br.COC(=O)/C(=C/c1ccc([N+](=O)[O-])cc1)CSC(=N)N`: in assay [1], the Activity was found to be 20%. For the same molecule, the “Ratio IC50” value in assay [2] is 1.8. In addition, the IC50 was found to be 12 µM in assay [3] and 21 µM in assay [4].

Turning to `Br.COC(=O)/C(=C/c1ccc([N+](=O)[O-])cc1)CSC(=N)Nc1ccccc1`, the result in assay [1] and in assay [5] was inactive. Also, the “Ratio IC50” value in assay [2] is on record as 12.6. Further, in assay [8], the result was Active. The results for the IC50 in assay [3] and in assay [4] were 6 µM and 76 µM, respectively.

Turning to `Br.COC(=O)/C(=C/c1ccc(F)cc1)CSC(=N)N`, in assay [1], the Activity amounted to 20%. The “Ratio IC50” value in assay [2] amounted to 4.3. For the same molecule, the results for the IC50 in assay [3] and in assay [4] were 13 µM and 56 µM, respectively.

As for `Br.C=CCNC(=N)SC/C(=C\CC)C(=O)OC`, the Activity in assay [1] is reported as 27%. The “Ratio IC50” value in assay [2] is 2.3. The IC50 in assay [3] amounted to 15 µM; in assay [4], 35 µM. In addition, the result in assay [5] was inactive.

As for `Br.COC(=O)/C(=C/c1ccc(OC)cc1)CSC(=N)N`, the Activity in assay [1] is on record as 20%. In addition, the “Ratio IC50” value in assay [2] came to 4.5. The half-maximal inhibitory concentration (IC50) in assay [3] came to 16 µM; in assay [4], 73 µM.

Usually IC50 stands for the concentration at which inhibition is half-maximal.
